{
  "source": "ChEMBL document CHEMBL1649565",
  "about": "“Besifloxacin, a novel fluoroquinolone, has broad-spectrum in vitro activity against aerobic and anaerobic bacteria” (Antimicrob Agents Chemother, 2009)",
  "format_in_all_cases": "functional",
  "key": {"Streptococcus sanguinis [1]": {"tested_on": "Streptococcus sanguinis", "experiment": "Antibacterial activity against Streptococcus sanguinis assessed as percent susceptible isolates by CLSI M100-S18 method"}, "[2]": {"tested_on": "Streptococcus intermedius", "experiment": "Antibacterial activity against Streptococcus intermedius by CLSI M100-S18 method"}, "Haemophilus influenzae [3]": {"tested_on": "Haemophilus influenzae", "experiment": "Antibacterial activity against ciprofloxacin-susceptible Haemophilus influenzae assessed as percent susceptible isolates by CLSI M7-A7 method"}, "Streptococcus oralis [4]": {"tested_on": "Streptococcus oralis", "experiment": "Antibacterial activity against Streptococcus oralis by CLSI M100-S18 method"}, "Streptococcus anginosus [5]": {"tested_on": "Streptococcus anginosus", "experiment": "Antibacterial activity against Streptococcus anginosus by CLSI M100-S18 method"}, "[6]": {"tested_on": "Streptococcus constellatus", "experiment": "Antibacterial activity against Streptococcus constellatus assessed as percent susceptible isolates by CLSI M100-S18 method"}, "Neisseria meningitidis [7]": {"tested_on": "Neisseria meningitidis", "experiment": "Antibacterial activity against Neisseria meningitidis by CLSI M7-A7 method"}, "Haemophilus influenzae [8]": {"tested_on": "Haemophilus influenzae", "experiment": "Antibacterial activity against ciprofloxacin-susceptible Haemophilus influenzae by CLSI M7-A7 method"}, "Streptococcus sanguinis [9]": {"tested_on": "Streptococcus sanguinis", "experiment": "Antibacterial activity against Streptococcus sanguinis by CLSI M100-S18 method"}, "Streptococcus pneumoniae [10]": {"tested_on": "Streptococcus pneumoniae", "experiment": "Antibacterial activity against non-levofloxacin susceptible Streptococcus pneumoniae by CLSI M100-S18 method"}, "Streptococcus pneumoniae [11]": {"tested_on": "Streptococcus pneumoniae", "experiment": "Antibacterial activity against non-levofloxacin susceptible Streptococcus pneumoniae assessed as percent susceptible isolates by CLSI M100-S18 method"}, "Neisseria meningitidis [12]": {"tested_on": "Neisseria meningitidis", "experiment": "Antibacterial activity against Neisseria meningitidis assessed as percent susceptible isolates by CLSI M7-A7 method"}, "Streptococcus anginosus [13]": {"tested_on": "Streptococcus anginosus", "experiment": "Antibacterial activity against Streptococcus anginosus assessed as percent susceptible isolates by CLSI M100-S18 method"}, "Streptococcus equinus [14]": {"tested_on": "Streptococcus equinus", "experiment": "Antibacterial activity against Streptococcus bovis assessed as percent susceptible isolates by CLSI M100-S18 method"}, "[15]": {"tested_on": "Streptococcus intermedius", "experiment": "Antibacterial activity against Streptococcus intermedius assessed as percent susceptible isolates by CLSI M100-S18 method"}, "[16]": {"experiment": "Antibacterial activity against Lancefield Streptococcus sp. 'group G' by CLSI M100-S18 method"}, "Streptococcus pyogenes": {"tested_on": "Streptococcus pyogenes", "experiment": "Antibacterial activity against Streptococcus pyogenes by CLSI M100-S18 method"}, "Streptococcus sp.": {"tested_on": "Streptococcus sp.", "experiment": "Antibacterial activity against Lancefield Streptococcus sp. group F by CLSI M100-S18 method"}, "Streptococcus mitis [17]": {"tested_on": "Streptococcus mitis", "experiment": "Antibacterial activity against Streptococcus mitis by CLSI M100-S18 method"}, "Streptococcus oralis [18]": {"tested_on": "Streptococcus oralis", "experiment": "Antibacterial activity against Streptococcus oralis assessed as percent susceptible isolates by CLSI M100-S18 method"}, "Haemophilus influenzae [19]": {"tested_on": "Haemophilus influenzae", "experiment": "Antibacterial activity against non-ciprofloxacin-susceptible Haemophilus influenzae by CLSI M7-A7 method"}, "Haemophilus influenzae [20]": {"tested_on": "Haemophilus influenzae", "experiment": "Antibacterial activity against non-ciprofloxacin-susceptible Haemophilus influenzae assessed as percent susceptible isolates by CLSI M7-A7 method"}, "Streptococcus pneumoniae [21]": {"tested_on": "Streptococcus pneumoniae", "experiment": "Antibacterial activity against levofloxacin-susceptible Streptococcus pneumoniae by CLSI M100-S18 method"}, "Streptococcus pneumoniae [22]": {"tested_on": "Streptococcus pneumoniae", "experiment": "Antibacterial activity against levofloxacin susceptible Streptococcus pneumoniae assessed as percent susceptible isolates by CLSI M100-S18 method"}, "Listeria monocytogenes [23]": {"tested_on": "Listeria monocytogenes", "experiment": "Antibacterial activity against Listeria monocytogenes assessed as percent susceptible isolates by CLSI M100-S18 method"}, "Streptococcus mitis [24]": {"tested_on": "Streptococcus mitis", "experiment": "Antibacterial activity against Streptococcus mitis assessed as percent susceptible isolates by CLSI M100-S18 method"}, "[25]": {"experiment": "Antibacterial activity against Lancefield Streptococcus sp. 'group C' by CLSI M100-S18 method"}, "Streptococcus salivarius [26]": {"tested_on": "Streptococcus salivarius", "experiment": "Antibacterial activity against Streptococcus salivarius by CLSI M100-S18 method"}, "Streptococcus salivarius [27]": {"tested_on": "Streptococcus salivarius", "experiment": "Antibacterial activity against Streptococcus salivarius assessed as percent susceptible isolates by CLSI M100-S18 method"}, "Listeria monocytogenes [28]": {"tested_on": "Listeria monocytogenes", "experiment": "Antibacterial activity against Listeria monocytogenes by CLSI M100-S18 method"}, "Streptococcus equinus [29]": {"tested_on": "Streptococcus equinus", "experiment": "Antibacterial activity against Streptococcus bovis by CLSI M100-S18 method"}, "[30]": {"tested_on": "Streptococcus constellatus", "experiment": "Antibacterial activity against Streptococcus constellatus by CLSI M100-S18 method"}},
  "note": "Calls of active or inactive are those of the source. The calls are words filed in the database; no cut-off is given here.",
  "data": [
    {"smiles": "CC1(C)S[C@@H]2[C@H](NC(=O)Cc3ccccc3)C(=O)N2[C@H]1C(=O)O", "note": "[PENICILLIN G]", "values": [
      {"measurement": "Activity", "setting": "Streptococcus sanguinis [1]", "value": 53.2, "unit": "%"},
      {"measurement": "MIC50", "setting": "[2]", "value": 16, "unit": "µg/mL"},
      {"measurement": "MIC90", "setting": "[2]", "value": 32, "unit": "µg/mL"},
      {"measurement": "Activity", "setting": "Haemophilus influenzae [3]", "value": "inactive"},
      {"measurement": "MIC50", "setting": "Streptococcus oralis [4]", "value": 16, "unit": "µg/mL"},
      {"measurement": "MIC90", "setting": "Streptococcus oralis [4]", "value": 32, "unit": "µg/mL"},
      {"measurement": "MIC50", "setting": "Streptococcus anginosus [5]", "value": 0.06, "unit": "µg/mL"},
      {"measurement": "MIC90", "setting": "Streptococcus anginosus [5]", "value": 1, "unit": "µg/mL"},
      {"measurement": "Activity", "setting": "[6]", "value": 53.2, "unit": "%"},
      {"measurement": "MIC", "setting": "Neisseria meningitidis [7]", "value": "≤ 0.06", "unit": "µg/mL"},
      {"measurement": "MIC50", "setting": "Neisseria meningitidis [7]", "value": "≤ 0.06", "unit": "µg/mL"},
      {"measurement": "MIC90", "setting": "Neisseria meningitidis [7]", "value": 0.12, "unit": "µg/mL"},
      {"measurement": "MIC50", "setting": "Haemophilus influenzae [8]", "value": 0.5, "unit": "µg/mL"},
      {"measurement": "MIC90", "setting": "Haemophilus influenzae [8]", "value": "> 4", "unit": "µg/mL"},
      {"measurement": "MIC50", "setting": "Streptococcus sanguinis [9]", "value": 16, "unit": "µg/mL"},
      {"measurement": "MIC90", "setting": "Streptococcus sanguinis [9]", "value": 32, "unit": "µg/mL"},
      {"measurement": "MIC50", "setting": "Streptococcus pneumoniae [10]", "value": 0.12, "unit": "µg/mL"},
      {"measurement": "MIC90", "setting": "Streptococcus pneumoniae [10]", "value": 2, "unit": "µg/mL"},
      {"measurement": "Activity", "setting": "Streptococcus pneumoniae [11]", "value": 100, "unit": "%"},
      {"measurement": "Activity", "setting": "Neisseria meningitidis [12]", "value": 50, "unit": "%"},
      {"measurement": "Activity", "setting": "Streptococcus anginosus [13]", "value": 53.2, "unit": "%"},
      {"measurement": "Activity", "setting": "Streptococcus equinus [14]", "value": 53.2, "unit": "%"},
      {"measurement": "Activity", "setting": "[15]", "value": 53.2, "unit": "%"},
      {"measurement": "MIC50", "setting": "[16]", "value": 8, "unit": "µg/mL"},
      {"measurement": "MIC90", "setting": "[16]", "value": 16, "unit": "µg/mL"},
      {"measurement": "MIC", "setting": "Streptococcus pyogenes", "value": "≤ 0.015", "unit": "µg/mL"},
      {"measurement": "MIC50", "setting": "Streptococcus pyogenes", "value": "≤ 0.015", "unit": "µg/mL"},
      {"measurement": "MIC90", "setting": "Streptococcus pyogenes", "value": "≤ 0.015", "unit": "µg/mL"},
      {"measurement": "MIC50", "setting": "Streptococcus sp.", "value": 8, "unit": "µg/mL"},
      {"measurement": "MIC90", "setting": "Streptococcus sp.", "value": 16, "unit": "µg/mL"},
      {"measurement": "MIC50", "setting": "Streptococcus mitis [17]", "value": 16, "unit": "µg/mL"},
      {"measurement": "MIC90", "setting": "Streptococcus mitis [17]", "value": 32, "unit": "µg/mL"},
      {"measurement": "Activity", "setting": "Streptococcus oralis [18]", "value": 53.2, "unit": "%"},
      {"measurement": "MIC50", "setting": "Haemophilus influenzae [19]", "value": 1, "unit": "µg/mL"},
      {"measurement": "MIC90", "setting": "Haemophilus influenzae [19]", "value": 2, "unit": "µg/mL"},
      {"measurement": "Activity", "setting": "Haemophilus influenzae [20]", "value": "inactive"},
      {"measurement": "MIC", "setting": "Streptococcus pneumoniae [21]", "value": "≤ 0.06", "unit": "µg/mL"},
      {"measurement": "MIC50", "setting": "Streptococcus pneumoniae [21]", "value": "≤ 0.06", "unit": "µg/mL"},
      {"measurement": "MIC90", "setting": "Streptococcus pneumoniae [21]", "value": 0.5, "unit": "µg/mL"},
      {"measurement": "Activity", "setting": "Streptococcus pneumoniae [22]", "value": 100, "unit": "%"},
      {"measurement": "Activity", "setting": "Listeria monocytogenes [23]", "value": 100, "unit": "%"},
      {"measurement": "Activity", "setting": "Streptococcus mitis [24]", "value": 53.2, "unit": "%"},
      {"measurement": "MIC50", "setting": "[25]", "value": 8, "unit": "µg/mL"},
      {"measurement": "MIC90", "setting": "[25]", "value": 16, "unit": "µg/mL"},
      {"measurement": "MIC50", "setting": "Streptococcus salivarius [26]", "value": 16, "unit": "µg/mL"},
      {"measurement": "MIC90", "setting": "Streptococcus salivarius [26]", "value": 32, "unit": "µg/mL"},
      {"measurement": "Activity", "setting": "Streptococcus salivarius [27]", "value": 53.2, "unit": "%"},
      {"measurement": "MIC50", "setting": "Listeria monocytogenes [28]", "value": 0.25, "unit": "µg/mL"},
      {"measurement": "MIC90", "setting": "Listeria monocytogenes [28]", "value": 0.25, "unit": "µg/mL"},
      {"measurement": "MIC50", "setting": "Streptococcus equinus [29]", "value": 16, "unit": "µg/mL"},
      {"measurement": "MIC90", "setting": "Streptococcus equinus [29]", "value": 32, "unit": "µg/mL"},
      {"measurement": "MIC50", "setting": "[30]", "value": 16, "unit": "µg/mL"},
      {"measurement": "MIC90", "setting": "[30]", "value": 32, "unit": "µg/mL"}
    ]}
  ]
}
